# Measurements taken from patent US10729693B2, “Compositions and methods for the treatment of endometriosis” (PONCE MEDICAL SCHOOL FOUNDATION, INC., priority 2018, dated 2020).
# Tests used:
# [1] = system: mineralocorticoid receptor 2 mRNA; test: mRNA of mineralocorticoid receptor 2 within the adrenal glands; assay type: in vivo, rat; details: compared to sham group
# Experimental: FIG. 18: mRNA of mineralocorticoid receptor 2. Within the adrenal glands of the same animals from the sham or endometriosis groups that received vehicle or antalarmin, the mRNA of the mineralocorticoid receptor 2 was measured. This receptor is in charge of binding adrenocorticotropic hormone (ACTH), which was elevated in animals that received antalarmin. The mineralocorticoid receptor mRNA expression is decreased in response to antalarmin as compared to the sham group. This could be due to a down regulation of the receptor in response to increased ACTH circulating levels. ** p<0.01.
# [2] = system: CRH peptide, CRHR1 and glucocorticoid receptor (GR) in hypothalamus and hippocampus; test: Brain immunohistochemistry (percent of area immunolabeled); assay type: in vivo, rat
# Experimental: Protocols previously published (Torres-Reveron et al., 2016, 2009, 2008) were followed. Rats were perfused with 4% paraformaldehyde by aortic arch perfusion and brains were removed and stored in cryoprotectant solution (30% sucrose, 30% ethylene glycol) until further processing. Coronal tissue sections (40 μm thick) through the hypothalamus (sections 0.92 to 1.88 caudal to Bregma) and dorsal hippocampus (sections 3.8 to 4.3 caudal to Bregma), which include the amygdala were selected and incubated in antiserum raised against CRHR1 (goat polyclonal, Abcam, cat. ab59023), CRH peptide antibody (guinea pig polyclonal, Peninsula labs., cat. T-5007) or glucocorticoid receptor antibody (GR, rabbit monoclonal, Cell Signaling cat. #3660) for 48 hrs. at 4° C. Optimal working concentrations were determined for each antibody. The primary antibody was labeled with CY3 secondary antibody (1:400 Jackson ImmunoResearch, West Grove, Pa.). Images were taken at the same time and illumination (excitation) and background corrected to control for batch effects. All regions of interest were analyzed using Image J software (open access from NIH) to calculate the percent of positive immunolabeling within the region of interest. Tissue from control and experimental animals was processed together. For each animal, the two best morphologically preserved sections of each region of interest were included in the analysis.
# endometriosis vesicles = test: Autotransplantation rat model of endometriosis: vesicle development and morphology; assay type: in vivo; details: at 60 days
# Source text: Experiment 2 consisted of 51 female rats that underwent endometriosis induction (n=40) or sham surgery (n=11). From the 40 rats that underwent endometriosis induction, 20 rats received the CRHR1 antagonist antalarmin intraperitoneally (i.p.) and 20 rats received vehicle control i.p. (10% Tween 80) from days 1-7 after surgery and endometriosis was allowed to progress until day 60 after surgery. The remaining 11 rats that underwent sham surgery were left untreated until day 60 after surgery. The sham group was used as a non-endometriosis baseline comparison. Only rats with regular estrous cycles were used in the experiments as assessed by vaginal smear lavage during the 7 days prior to surgery and on the day of sacrifice. […] Therefore, the final group numbers for endometriosis quantification and behavior were: endometriosis-antalarmin=20, endometriosis-vehicle=20, sham=10. Cyclicity was not assessed during the drug administration and was only collected before treatment and the day of sacrifice. This was decided to avoid any additional stressors not related to the drug administration per se that may affect results. The estrous cycle distribution for experiments 1 and 2 can be accessed in FIG. 14.
# First, endometriosis in female rats was induced by suturing uterine horn tissue next to the intestinal mesentery and allowed to progress for 7 days. After 7 days, it was determined that there was a significant increase in CRHR1 within endometriotic vesicles as compared to a normal uterus. Endometriosis was induced in a second group of rats, and further the second group of rats received consecutive doses of antalarmin of 20 milligrams per kilogram intraperitoneal (20 mg/kg, i.p.) during the first 7 days after surgery. A separate group of sham surgery rats served as controls.
# Briefly, rats were anesthetized with isoflurane and four pieces of the right uterine horn were auto transplanted to 4 different blood vessels in the intestinal mesentery. The control group was sham operated animals for which the right uterine horn was massaged for 2 minutes and sutures were placed in the intestinal mesenteric area with no uterine implants. For group 1, sham or endometriosis operated rats were allowed to progress for 7 days after surgery before sacrificed. For group 2, endometriosis was allowed to progress for 60 days before sacrificing.
# (§1) It was verified that the animals were deeply anesthetized. Rats were weighed, and a cytological smear taken to verify stage of the estrous cycle. The peritoneal and thoracic cavities were opened, and a blood sample was collected directly from the heart. Following this, peritoneal fluid was collected using a sterile plastic pipette. Examination was directed to the presence of endometriosis vesicles. The implants that developed into vesicles were excised from the mesentery, weighed and measured using a digital caliper. Classification of vesicles was carried out and assigned the following grades: grade 1=disappeared; grade 2=0.01-1.99 mm; grade 3=2-4.49 mm; grade 4=4.5-5.99 mm; grade 5=6.0 mm or larger. In sham animals, empty suture sites were counted and collected. In addition to the endometriosis vesicles, the adrenal glands were collected, all surrounding fatty tissue was removed, and the cleared adrenal glands were weighed. Additionally, tissues from colon and the left uterine horn were collected. All tissues were flash frozen and stored at −80° until further processing.
# [3] = system: corticosterone, adrenocorticotropic hormone (ACTH), IL-6; test: ELISA of serum corticosterone and ACTH and of peritoneal fluid IL-6; assay type: in vivo, rat; details: at sacrifice
# Source text: as §1
# Serum and peritoneal fluid samples from animals were tested for levels of corticosterone, adrenocorticotropic hormone (ACTH) and the pro-inflammatory cytokine IL-6 following instructions in the commercial kits. The following kits were used: Corticosterone rat/mouse kit (Cat. #79175; IBL America, Minneapolis, Minn.); Rat IL-6 pre-coated ELISA kit (Cat. #437107; BioLegend, San Diego, Calif.); Mouse/rat ACTH ELISA kit (Cat. # AC018T-100, Calbiotech, El Cajon, Calif.).
# implantation sites = details: rodents; Fas-ligand immune tolerance dependent mechanism; cited from earlier work
# [4] = compared to sham, both endometriosis groups regardless of treatment
# [5] = 20 mg/kg i.p. days 1-7 after surgery
smiles,measurement,setting,value
CCCCN(CC)c1nc(C)nc2c1c(C)c(C)n2-c1c(C)cc(C)cc1C [antalarmin],mineralocorticoid receptor 2 mRNA expression in adrenal glands,[1],decreased
same,CRHR1 immunolabeling in dentate gyrus (DG),[2]; [4],Large increases in CRHR1 labeling
same,GR immunolabeling in dentate gyrus (DG),[2]; [4],Large increases in GR labeling
same,CRH peptide immunolabeling in PVN and hippocampus,[2]; day 60,No changes in CRH peptide
same,CRHR1 immunolabeling in CA3,[2]; day 60,No changes in CRHR1
same,GR immunolabeling in CA3,[2]; day 60,no changes in GR
same,"average vesicle area per rat, difference to vehicle",endometriosis vesicles; [5],55%
same,"average vesicle volume per rat, difference to vehicle",endometriosis vesicles; [5],68%
same,"total weight of endometriosis vesicles (sum per rat), less than vehicle control (size decrease)",endometriosis vesicles; [5],67%
same,decrease in the number of developed endometriosis vesicles,"endometriosis vesicles; 20 mg/kg i.p. days 1-7 after surgery, vs vehicle",30%
same,"vesicle classification by grade (1-5, length scale)",endometriosis vesicles; vs vehicle treated control,"a larger percentage of endometriosis vesicles that disappeared, as well as a reduced percentage of vesicles of grade 3 and 5"
same,IL-6 in peritoneal fluid,[3]; 53 days after treatment,did not produce any change
same,serum corticosterone,[3]; day 60,slightly elevated
same,serum adrenocorticotropic hormone (ACTH),"[3]; day 60, compared to vehicle group",significantly elevated levels
same,reduction of the number of implantation sites,implantation sites,70%
